Experimental data as given in patent US12435091B2, “RNA-binding protein multimerization inhibitors and methods of use thereof” (THE UAB RESEARCH FOUNDATION, priority 2020, dated 2025).
Where two headings read alike, the source gives them in different places.

Tests used:
HuR = target: T1, HuR (Homo sapiens, UniProt Q15717); experiment: cell-based split firefly luciferase-HuR dimerization assay; conditions: for IC50: read-out: HuR IC50
T1 construct: expressed in transfected cells; host or cells: U251 glioma cells, doxycycline-inducible constructs
Description: (§1) The oncogenic activity of HuR is driven by subcellular localization into the cytoplasm and formation of multimers of HuR. To develop cell based assays to characterize the ability of small molecules to disrupt this process, a split luciferase assay detecting the formation of HuR dimers was developed. The assays were performed in 96 well plates with clear bottom (Corning Inc., Corning, NY). Cells with designed constructs (30,000-50,000 in number) were plated per well; the constructs were induced by doxycycline (0.75 ug/ml) for 48 hours. The evaluated compounds at different concentrations and the corresponding vehicle as the control were administered for 6 hours. The luminescence signals were detected by using InfinitiM200 plate reader (TECAN, Morrisville, NC) in the presence of the luciferase substrate luciferin (D-Luciferin, potassium salt), which was purchased from GoldBio (St Louis, MO). A multichannel pipette (XL 3000I™, Denville Scientific, South Plainfield, NJ) was used in all procedures to ensure the experiment quality.
The assay used the coding sequence of HuR in frame with the N-terminus of firefly luciferase or the C-terminus as depicted in FIG. 2A. When HuR forms dimers in this case, luciferase is generated and with luciferin present, luminescence is generated.
(§2) Squares represent luminescence signal from reporter representing HuR dimers (U251 cells co-expressing HuR-Nluc and HuR-Cluc constructs); circles represent luminescence signal from control reporter (U251 cells expressing Fluc construct). Results are shown as mean+SD.

[1] = system: U251 cells expressing Fluc construct; experiment: control Fluc (full length luciferase) reporter assay in U251 cells; format: cell-based; conditions: for inhibition at 25 µM / inhibition at 50 µM / inhibition at 100 µM: Homo sapiens, U-251, 6 h, read-out: Fluc Imax % Inh; for inhibition at 25 µM: Concn 25 uM; for inhibition at 50 µM: Concn 50 uM; for inhibition at 100 µM: Concn 100 uM
Description: as §1, with “quality. […]” for “quality.”
as §2

[2] = split luciferase HuR dimerization assay, compounds administered for 6 hours
[3] = U251 cells co-expressing HuR-Nluc and HuR-Cluc, 6 hours of treatment

T1 sequence (Q15717 whole entry): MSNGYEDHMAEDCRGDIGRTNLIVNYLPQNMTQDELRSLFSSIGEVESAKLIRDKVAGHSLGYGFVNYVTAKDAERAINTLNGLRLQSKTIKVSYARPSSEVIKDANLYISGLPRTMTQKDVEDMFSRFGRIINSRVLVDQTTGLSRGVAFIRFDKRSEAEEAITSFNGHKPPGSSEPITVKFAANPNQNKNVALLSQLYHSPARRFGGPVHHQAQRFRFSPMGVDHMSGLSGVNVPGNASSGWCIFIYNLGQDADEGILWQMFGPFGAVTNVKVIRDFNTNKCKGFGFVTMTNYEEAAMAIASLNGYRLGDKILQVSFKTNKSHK

`CN1CCC(N(C)c2ccc3ncc(-c4ccc5cn[nH]c5c4)n3n2)CC1` [Compound 25, 3-(1H-Indazol-6-yl)-N-methyl-N-(1-methylpiperidin-4-yl)imidazo[1,2-b]pyridazin-6-amine] gave an IC50 (HuR; [2]) greater than 50 µM.
`c1cc2[nH]ncc2cc1-c1cnc2ccc(NC3CCOCC3)nn12` [Compound 39, 3-(1H-Indazol-5-yl)-N-(tetrahydro-2H-pyran-4-yl)imidazo[1,2-b]pyridazin-6-amine] was tested, and the “HuR N/C Imax % Inh” value (HuR; Concn 25 uM) was 94%, the IC50 (HuR; [2]) was 0.3 µM and the inhibition at 25 µM [1] was 28%.
`COc1ccc(-c2[nH]ncc2C(=O)NCC2CC2)cc1Cl` [SRI-43649] was tested, and the “HuR N/C Imax % Inh” value (HuR; Concn 50 uM) was 0% and the inhibition at 50 µM [1] was 0%.
In the case of `Cc1nn(C)c2ccc(-c3cnc4ccc(N(C)C5CCOCC5)nn34)cc12` [Compound 44, 3-(1,3-Dimethyl-1H-indazol-5-yl)-N-methyl-N-(tetrahydro-2H-pyran-4-yl)imidazo[1,2-b]pyridazin-6-amine], the “HuR IC50” value (HuR; [2]) is reported as “Insoluble”.
`CN(c1ccc2ncc(-c3ccc4[nH]cnc4c3)n2n1)C1CCOCC1` [Compound 37, 3-(1H-Benzo[d]imidazol-5-yl)-N-methyl-N-(tetrahydro-2H-pyran-4-yl)imidazo[1,2-b]pyridazin-6-amine] was tested, and the “HuR N/C Imax % Inh” value (HuR; Concn 50 uM) was 87%, the IC50 (HuR; [3]) was 8 µM and the IC50 (HuR; [2]) was 8 µM. For the same compound, the inhibition at 50 µM [1] was 14%.
`c1cc2[nH]ncc2cc1-c1cnc2ccc(OC3CCOCC3)nn12` [Compound 57, 3-(1H-Indazol-5-yl)-6-((tetrahydro-2H-pyran-4-yl)oxy)imidazo[1,2-b]pyridazine] was tested, and the “HuR N/C Imax % Inh” value (HuR; Concn 50 uM) was 89%, the IC50 (HuR; [2]) was 2 µM and the inhibition at 50 µM [1] was 12%.
In the case of `CN(c1ccc2ncc(-c3ccc4[nH]ncc4c3)n2n1)C1CCOCC1` [Compound 40, 3-(1H-Indazol-5-yl)-N-methyl-N-(tetrahydro-2H-pyran-4-yl)imidazo[1,2-b]pyridazin-6-amine], the “HuR N/C Imax % Inh” value (HuR; Concn 25 uM) is reported as 90%, the IC50 (HuR; [2]) is reported as 0.3 µM and the inhibition at 25 µM [1] is reported as 23%.
For `c1cc2[nH]ncc2cc1-c1cnc2ccc(N3CCOCC3)nn12` [Compound 51, 4-(3-(1H-Indazol-5-yl)imidazo[1,2-b]pyridazin-6-yl)morpholine], the “HuR N/C Imax % Inh” value (HuR; Concn 50 uM) was 87%, the IC50 (HuR; [3]) was 7 µM and the IC50 (HuR; [2]) was 7 µM. For the same compound, the inhibition at 50 µM [1] was 27%.
`Cc1nn(C)c2cc(-c3cnc4ccc(NC5CCOCC5)nn34)ccc12` [Compound 34, 3-(1,3-Dimethyl-1H-indazol-6-yl)-N-(tetrahydro-2H-pyran-4-yl)imidazo[1,2-b]pyridazin-6-amine] was tested, and the IC50 (HuR; [2]) was 40 µM.
`Cc1nn(C)c2cc(-c3cnc4ccc(N(C)C5CCOCC5)nn34)ccc12` [Compound 35, 3-(1,3-Dimethyl-1H-indazol-6-yl)-N-methyl-N-(tetrahydro-2H-pyran-4-yl)imidazo[1,2-b]pyridazin-6-amine] showed an IC50 (HuR; [2]) greater than 50 µM.
With `c1nn(C2CCOCC2)cc1Nc1ncc2nnn(-c3ccc4cn[nH]c4c3)c2n1` [Compound A-92] the “HuR N/C Imax % Inh” value (HuR; Concn 50 uM) was 93%, the IC50 (HuR; [3]) was 4.5 µM and the “maximum inhibition of HuR dimerization” value (HuR; after 6 hours of cell treatment) was 93±2%. For the same compound, the “decrease of luminescence signal from cells overexpressing the control Fluc construct” value ([1]; 6 hours, represents the cytotoxic effect) was 32±7% and the inhibition at 50 µM [1] was 32%.
With `Cc1ccc(S(=O)(=O)NC(C(=O)Oc2ccc3c4c(c(=O)oc3c2C)CCC4)c2ccccc2)cc1` (stereo not drawn) [SRI-43651] the “HuR N/C Imax % Inh” value (HuR; Concn 50 uM) was 0% and the inhibition at 50 µM [1] was 0%.
`c1cnc2cc(-c3cnc4ccc(NC5CCOCC5)nn34)ccc2n1` [Compound 12] was tested, and the IC50 (HuR; [2]) was 12 µM.
In the case of `CCCN(C)c1ccc2ncc(-c3ccc4c(C)nn(C)c4c3)n2n1` [Compound 36, 3-(1,3-Dimethyl-1H-indazol-6-yl)-N-methyl-N-propylimidazo[1,2-b]pyridazin-6-amine], the IC50 (HuR; [2]) is reported as greater than 50 µM.
In the case of `c1cc2cn[nH]c2cc1-c1cnc2ccc(OC3CCOCC3)nn12` [Compound 58], the “HuR N/C Imax % Inh” value (HuR; Concn 50 uM) is reported as 82%, the IC50 (HuR; [2]) is reported as 3 µM and the inhibition at 50 µM [1] is reported as 23%.
For `O=C(CCn1ccc(=O)[nH]c1=O)N1CCN(C(=O)C2CC2c2ccc3c(c2)OCO3)CC1` (stereo not drawn) [SRI-43654], the “HuR N/C Imax % Inh” value (HuR; Concn 50 uM) was 0% and the inhibition at 50 µM [1] was 0%.
For `CC(=O)Nc1cccc(-c2cnc3ccc(NC4CCOCC4)nn23)c1` [Compound 9], the IC50 (HuR; [2]) was greater than 30 µM.
`Clc1ccc2ncc(-c3ccc4cn[nH]c4c3)n2n1` [SRI-43183] was tested, and the “HuR N/C Imax % Inh” value (HuR; Concn 100 uM) was 76% and the inhibition at 100 µM [1] was 20%.
For `CN1CCN(c2ccc3ncc(-c4ccc5[nH]ncc5c4)n3n2)CC1` [Compound 52, 3-(1H-Indazol-5-yl)-6-(4-methylpiperazin-1-yl)imidazo[1,2-b]pyridazine], the “HuR N/C Imax % Inh” value (HuR; Concn 50 uM) was 90%, the IC50 (HuR; [3]) was 8 µM and the IC50 (HuR; [2]) was 8 µM. The inhibition at 50 µM [1] was 13%.
Work on `COc1ccc(-c2cnc3ccc(NC4CCCCC4)nn23)cc1` [Compound 15] yielded an IC50 (HuR; [2]) greater than 30 µM.
With `CCCN(C)c1ccc2ncc(-c3ccc4[nH]ncc4c3)n2n1` [Compound 49, 3-(1H-Indazol-5-yl)-N-methyl-N-propylimidazo[1,2-b]pyridazin-6-amine] the “HuR N/C Imax % Inh” value (HuR; Concn 100 uM) was 89%, the IC50 (HuR; [3]) was 0.6 µM and the IC50 (HuR; [2]) was 0.6 µM. It also gave an inhibition at 100 µM [1] of 12%.
With `FC(F)(F)c1nnc2ccc(NCCc3c[nH]c4ccccc34)nn12` [SRI-41639] the “HuR N/C Imax % Inh” value (HuR; Concn 100 uM) was 49%, the IC50 (HuR; [3]) was greater than 100 µM and the inhibition at 100 µM [1] was 17%.
In the case of `c1ccc(CNc2ccc3ncc(-c4ccc5[nH]ncc5c4)n3n2)cc1` [Compound 47, N-Benzyl-3-(1H-indazol-5-yl)imidazo[1,2-b]pyridazin-6-amine], the “HuR N/C Imax % Inh” value (HuR; Concn 50 uM) is reported as 93%, the IC50 (HuR; [3]) is reported as 3 µM and the IC50 (HuR; [2]) is reported as 3 µM. It also gave an inhibition at 50 µM [1] of 24%.
In the case of `CCC(C)NS(=O)(=O)c1ccc2oc(=O)ccc2c1` (stereo not drawn) [SRI-43652], the “HuR N/C Imax % Inh” value (HuR; Concn 50 uM) is reported as 0% and the inhibition at 50 µM [1] is reported as 0%.
Work on `CS(=O)(=O)c1ccc(-c2cnc3ccc(NC4CCOCC4)nn23)cc1` [Compound 6] yielded an IC50 (HuR; [2]) greater than 30 µM.
With `CC(=O)c1n[nH]c2ccc(-c3cnc4ccc(N(C)C5CCOCC5)nn34)cc12` [Compound 54, 1-(5-(6-(Methyl(tetrahydro-2H-pyran-4-yl)amino)imidazo[1,2-b]pyridazin-3-yl)-1H-indazol-3-yl)ethan-1-one] the IC50 (HuR; [2]) was greater than 50 µM.
With `CCCN(C)c1ccc2ncc(-c3cccc4cnccc34)n2n1` [Compound 17, 3-(Isoquinolin-5-yl)-N-methyl-N-propylimidazo[1,2-b]pyridazin-6-amine] the IC50 (HuR; [2]) was greater than 50 µM.
`Cc1n[nH]c2cc(-c3cnc4ccc(NC5CCOCC5)nn34)ccc12` [Compound 31, 3-(3-Methyl-1H-indazol-6-yl)-N-(tetrahydro-2H-pyran-4-yl)imidazo[1,2-b]pyridazin-6-amine] showed an IC50 (HuR; [2]) greater than 50 µM.
With `OCc1ccccc1-c1cnc2ccc(NC3CCOCC3)nn12` [Compound 7] the IC50 (HuR; [2]) was greater than 100 µM.
With `CCCN(C)c1ccc2ncc(-c3cccc(N(C)C)c3)n2n1` [Compound 16, 3-(3-(Dimethylamino)phenyl)-N-methyl-N-propylimidazo[1,2-b]pyridazin-6-amine] the IC50 (HuR; [2]) was greater than 50 µM.
`c1cncc(-c2cnc3ccc(NC4CCOCC4)nn23)c1` [Compound 8] showed an IC50 (HuR; [2]) greater than 30 µM.
`CCCN(C)c1ccc2ncc(-c3ccc4c(C)n[nH]c4c3)n2n1` [Compound 33, N-Methyl-3-(3-methyl-1H-indazol-6-yl)-N-propylimidazo[1,2-b]pyridazin-6-amine] gave an IC50 (HuR; [2]) of 25 µM.
With `CN(c1ccc2ncc(-c3ccccc3)n2n1)C1CCOCC1` [Compound 14, N-Methyl-3-phenyl-N-(tetrahydro-2H-pyran-4-yl)imidazo[1,2-b]pyridazin-6-amine] the IC50 (HuR; [2]) was 23 µM.
In the case of `Cc1nn(C)c2ccc(-c3cnc4ccc(NC5CCOCC5)nn34)cc12` [Compound 43, 3-(1,3-Dimethyl-1H-indazol-5-yl)-N-(tetrahydro-2H-pyran-4-yl)imidazo[1,2-b]pyridazin-6-amine], the “HuR IC50” value (HuR; [2]) is reported as “Insoluble”.
`c1cc2cc(-c3cnc4ccc(NC5CCOCC5)nn34)ccc2o1` [Compound 10] gave an IC50 (HuR; [2]) greater than 30 µM.
`c1ccc(-c2cnc3ccc(NC4CCOCC4)nn23)cc1` [Compound 11] gave an IC50 (HuR; [2]) of 18 µM.
With `c1cc2cn[nH]c2cc1-c1cnc2ccc(N(CC3CC3)C3CCOCC3)nn12` [Compound 28, N-(Cyclopropylmethyl)-3-(1H-indazol-6-yl)-N-(tetrahydro-2H-pyran-4-yl)imidazo[1,2-b]pyridazin-6-amine] the IC50 (HuR; [2]) was greater than 50 µM.
For `CCCN(C)c1ccc2ncc(-c3cnc4[nH]ncc4c3)n2n1` [Compound 56, N-Methyl-N-propyl-3-(1H-pyrazolo[3,4-b]pyridin-5-yl)imidazo[1,2-b]pyridazin-6-amine], the inhibition at 50 µM [1] was 5%.
